# Test results as given in ChEMBL document CHEMBL2163339, “Discovery of potent inhibitors of human and mouse fatty acid amide hydrolases” (J Med Chem, 2012).
# Calls of active or inactive are those of the source. The rule behind the calls is not given here.
# Molecular target: T1, Fatty-acid amide hydrolase 1 (Mus musculus) (UniProt O08914)
# T1 sequence (whole entry): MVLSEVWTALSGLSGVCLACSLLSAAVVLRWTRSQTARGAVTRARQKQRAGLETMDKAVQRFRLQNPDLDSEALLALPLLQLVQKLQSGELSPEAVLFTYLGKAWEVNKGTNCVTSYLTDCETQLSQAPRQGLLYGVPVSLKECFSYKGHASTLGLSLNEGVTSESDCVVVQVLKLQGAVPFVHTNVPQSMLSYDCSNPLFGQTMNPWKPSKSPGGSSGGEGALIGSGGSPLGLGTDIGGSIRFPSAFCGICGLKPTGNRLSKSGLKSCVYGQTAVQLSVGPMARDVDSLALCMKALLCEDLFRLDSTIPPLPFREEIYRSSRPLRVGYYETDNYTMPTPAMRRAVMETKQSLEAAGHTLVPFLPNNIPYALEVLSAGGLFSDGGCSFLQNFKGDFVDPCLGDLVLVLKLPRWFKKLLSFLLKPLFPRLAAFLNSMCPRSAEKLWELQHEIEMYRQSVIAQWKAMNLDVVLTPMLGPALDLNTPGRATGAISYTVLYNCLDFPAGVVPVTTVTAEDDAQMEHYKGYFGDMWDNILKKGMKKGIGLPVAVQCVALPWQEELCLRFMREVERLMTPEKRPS
# Assay: Reversible inhibition of mouse FAAH isolated from brain homogenate using [3H-ethanolamine]AEA as substrate incubated for 20 mins prior to substrate addition measured after 18 hrs by […] method
row,SMILES,inhibition
1,NC(=O)c1ccn(-c2cccc(OC(=O)NCCOCCOc3ccc(F)cc3F)c2)c1,Active

# Molecular target: T2, Fatty-acid amide hydrolase 1 (Mus musculus, UniProt O08914)
# T2 sequence (O08914 whole entry): T1 sequence (whole entry)
# Assay: Inhibition of mouse FAAH isolated from brain homogenate using [3H-ethanolamine]AEA as substrate incubated for 20 mins prior to substrate addition measured after 15 mins by beta counting analysis
SMILES,IC50,Ki
NC(=O)c1ccn(-c2cccc(OC(=O)NC3CCCCC3)c2)c1,120 nM,32 nM
C#CCCCCCCCCCOC(=O)c1ccn(-c2cccc(OC(=O)NCCCC)c2)c1,> 70 nM,
CCCCNC(=O)Oc1cccc(-c2cc(C(N)=O)c(C)o2)c1,> 200 nM,
CCCCNC(=O)Oc1cccc(-c2sc(C)cc2C(N)=O)c1,> 200 nM,
COc1cccc(-c2c(C(=O)NCCCCCc3ccccc3)cc(C)n2Cc2ccccc2)c1,> 50000 nM,
CCCCNC(=O)Oc1cccc(-n2ccc(C(=O)OCCCCCCc3ccccc3)c2)c1,> 200 nM,
NC(=O)c1ccn(-c2cccc(OC(=O)NCCOCCOc3ccc(F)cc3F)c2)c1,28 nM,7 nM
